Results published in patent US5849326A, “Method for treating neuronal diseases via administration of 2-acylaminopropanol derivatives” (Seikagaku Corporation, priority 1993, dated 1998).

Experiments:
B16 melanoma cells = test: Glycolipid biosynthesis (3H-galactose incorporation into GSL); type: cell-based; details: culture for 24 hours
Description: B16 melanoma cells derived from neuroectoderm were charged into a culture plate with 12 wells in an amount of 1×10^5 cells/well and cultured for 24 hours in a Dulbecco modified Eagle's medium containing 10% bovine fetal serum. […] After 24 hours, the medium was removed, the cells were washed with 1 ml of a phosphate buffer containing 0.1% EDTA, 1 ml of 0.25% trypsin was added, and the mixture was left to stand at 37° C. for 5 minutes. […] 4 ml of methanol and chloroform were added successively to the mass of the cells to extract all GSL, followed by evaporation to dryness. The residue was subjected to alkali hydrolysis with chloroform:methanol (1:1) containing 0.2N sodium hydroxide, neutralized with acetic acid and then evaporated to dryness. The product evaporated to dryness was dissolved in water and then desalted with a Sep-Pak C18 cartridge (Waters). The adsorbed GSL was dissolved out by 1 ml of methanol and 4 ml of chloroform:methanol (1:1) and then evaporated to dryness under a nitrogen stream. […] Thereafter, the positions of glucosylceramide, lactosylceramide and ganglioside GM3 were confirmed by iodine coloration, they were scratched off from TLC, respectively, and radioactivities thereof were measured by a liquid scintillation counter.

[1] = system: rat cerebral ischemia models; test: Antidementia effect in rat cerebral ischemia models (Example 10); type: in vivo; details: 2×40 mg/kg/day intraperitoneally for 6 days from 24 hours after ischemia; retention trial 12 hours after final administration; 8 rats
Description: After 12 hours from the final administration, retention trial was carried out.

## CCCCCCCCCC(=O)N[C@@H](CN1CCOCC1)[C@@H](O)c1ccccc1 [L-threo-PDMP, 1-phenyl-2-decanoylamino-3-morpholino-1-propanol]
B16 melanoma cells
  concentration at which a pharmaceutical effect has been observed: 25 µM
[1]
  rats recovered to a normal level: 50%
